Experimental data published in patent US6172112A, “Retinoids and use thereof” (priority 1999, dated 2001).
Entries after “also recorded” stand apart in the source; their conditions may differ. Read-outs that look alike come from different tables or passages of the source.

Columns and labels:
[1] = test system: NB4 cells; experiment: retinoid induction of differentiation of NB4 cells (NBT); assay type: cell-based, Human; conditions: for EC50: NB-4, 96 h, read-out: ED50 (nM) NB4
Experimental: NB4 cells were obtained from Dr. Waxman after he received them from Dr. M. Lanotte. […] The cell were grown at 37° C. in a humidified atmosphere of 5% CO2 in air. Cell density was estimated on an electronic particle counter (Coulter electronic, Hialeah, Fla.) and cell viability with trypan bleu dye exclusion.
(§1) Human leukemia cell line HL-60 and NB4 were used for measuring the ability of retinoids to induce terminal differentiation. Both cell lines are predominantly promyelocytes and are induced by retinoic acid to mature to cells with many characteristics of mature granulocytes. The induction of this differentiation is the basis for assaying one of the biological activities of retinoic acid analogues. For the differentiation assay, HL-60 or NB4 cells were grown in nutrient medium with fetal bovine serum as detailed by Breitman (15).
(§2) The percentage of cells that gained this marker was measured microscopically. The percentage of positive cells was then plotted as a function of the retinoid concentration to determine ED50 and ED30 values used in the formation of isoboles.

[2] = test system: JMML cells; experiment: inhibition of JMML spontaneous CFU-GM colony formation; conditions: Homo sapiens
Experimental: Mononuclear cells were separated by density gradient centrifugation, washed, and frozen in aliquots. […] No growth factors or other exogenous stimuli were added to the cultures. UAB retinoids and retinoic acid isomers were dissolved in either 100% ethanol or DMSO. Appropriate dilutions were made, and controls using the respective ethanol or DMSO concentration were set up in parallel. Varying doses of retinoids were added only once, 24 hours after initiation of the soft agar assays, by pipetting the retinoid solution on top of the soft agar and allowing the solution to enter the agar and interact with the cells by diffusion. The cultures were incubated for 14 days at 37° C. in a humidified atmosphere with 5% CO2.

[3] = test system: mouse skin papilloma; conditions: 45.9 nmol dose; ref (8); cited from earlier work
[4] = molecular target: T1, RARβ (Homo sapiens, UniProt P10826); experiment: nuclear receptor radiolabeled competition binding, RARβ
T1 construct: expressed in transfected cells; host or cells: CV-1 cells
T1 sequence (P10826 1-455): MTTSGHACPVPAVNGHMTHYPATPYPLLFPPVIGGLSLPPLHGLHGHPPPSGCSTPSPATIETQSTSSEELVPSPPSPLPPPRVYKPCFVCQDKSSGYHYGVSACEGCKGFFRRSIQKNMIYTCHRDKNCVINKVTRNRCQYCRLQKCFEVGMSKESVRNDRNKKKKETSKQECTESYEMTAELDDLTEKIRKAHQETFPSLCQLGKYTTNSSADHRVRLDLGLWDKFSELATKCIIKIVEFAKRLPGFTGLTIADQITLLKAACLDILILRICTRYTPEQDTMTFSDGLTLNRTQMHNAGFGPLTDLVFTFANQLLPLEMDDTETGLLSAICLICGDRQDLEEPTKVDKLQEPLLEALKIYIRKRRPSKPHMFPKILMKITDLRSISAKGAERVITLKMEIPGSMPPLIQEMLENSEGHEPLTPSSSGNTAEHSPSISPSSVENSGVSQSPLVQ
Experimental: (§3) For active retinoids, IC50 values were determined by titration with varying concentrations of UAB retinoids.

[5] = molecular target: T2, RARα (Homo sapiens, UniProt P10276); experiment: nuclear receptor radiolabeled competition binding, RARα
T2 sequence (P10276 1-462): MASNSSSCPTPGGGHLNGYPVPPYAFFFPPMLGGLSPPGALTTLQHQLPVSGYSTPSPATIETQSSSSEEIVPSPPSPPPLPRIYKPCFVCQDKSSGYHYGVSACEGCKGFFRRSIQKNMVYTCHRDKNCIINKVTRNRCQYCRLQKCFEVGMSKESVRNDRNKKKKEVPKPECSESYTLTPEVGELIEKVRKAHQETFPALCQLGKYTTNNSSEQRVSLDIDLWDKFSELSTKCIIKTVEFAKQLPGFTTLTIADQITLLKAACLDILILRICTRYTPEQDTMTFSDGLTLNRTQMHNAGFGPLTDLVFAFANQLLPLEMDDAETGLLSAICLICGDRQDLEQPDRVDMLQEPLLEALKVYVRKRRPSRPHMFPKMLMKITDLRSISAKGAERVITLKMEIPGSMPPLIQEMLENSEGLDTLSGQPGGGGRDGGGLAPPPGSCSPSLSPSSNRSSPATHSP
Experimental: as §3

[6] = molecular target: T3, RARγ (Homo sapiens, UniProt P13631); experiment: RARγ-mediated transcriptional activation in CV-1 cells; assay type: cell-based
T3 sequence (P13631 1-454): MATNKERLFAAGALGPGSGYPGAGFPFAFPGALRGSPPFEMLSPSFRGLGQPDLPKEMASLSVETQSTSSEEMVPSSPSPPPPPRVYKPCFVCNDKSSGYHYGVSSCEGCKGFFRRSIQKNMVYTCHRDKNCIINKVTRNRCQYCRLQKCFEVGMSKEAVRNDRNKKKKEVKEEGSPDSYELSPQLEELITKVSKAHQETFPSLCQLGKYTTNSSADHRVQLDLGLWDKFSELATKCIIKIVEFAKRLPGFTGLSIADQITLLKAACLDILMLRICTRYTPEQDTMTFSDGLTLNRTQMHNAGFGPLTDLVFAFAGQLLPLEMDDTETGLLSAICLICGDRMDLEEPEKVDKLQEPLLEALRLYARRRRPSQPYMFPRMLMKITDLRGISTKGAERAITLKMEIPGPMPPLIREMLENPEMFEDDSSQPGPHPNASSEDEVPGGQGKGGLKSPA
Experimental: (§4) These assays were performed in CV-1 cells with the RAR or RXR gene and the chloramphenicol acetyltransferase (CAT) reporter gene containing TREpal with a thymidine kinase promoter [(TREpal)2 -tk-CAT]. Twenty-four hours after transfection, cells were treated with a single dose of retinoid and the cell extracts were assayed for b-galactosidase and CAT activity. The antagonistic effects of UAB30 retinoids on the transcription of RAR-α were also determined in CV-1 cells. The methods are nearly identical to those used to perform transcriptional assays. These studies utilized the CAT reporter gene [(TREpal)2 -tk-CAT]. […] After 24 hours, cells were harvested and the transcriptional effects were measured in relative CAT activity, after correction with β-galactosidase activity for transfection efficiency. […] Experiments were performed in triplicate and the data were averaged.
(§5) UAB30 isomers were evaluated in assays which measures their functional activity within cells to induce RARα-, RARβ-, and RARγ-mediated transcriptional activity. CV-1 cells were transiently transfected with DNA plasmid from the appropriate RAR subtype and (TREpal)2 -tk-CAT (9, 19).

[7] = molecular target: T3, RARγ; experiment: nuclear receptor radiolabeled competition binding, RARγ
Experimental: as §3

[8] = test system: mouse skin papilloma; experiment: mouse skin antipapilloma assay; conditions: 45.9 nmol dose
Experimental: The mouse skin antipapilloma assay measured the ED50 values for retinoid tumor inhibition on the dorsal skin of mice. The inhibition of mouse skin papilloma by retinoids was performed according to a modification of the procedure developed by Verma and Boutwell (14) as reported previously by Muccio et al. (8).
The UAB30 retinoids were evaluated next for their activity in preventing the chemical induction of papillomas on mouse skin (14).

[9] = molecular target: T2, RARα; experiment: cell-based
Experimental: as §4, §5

[10] = molecular target: T4, RARα/RXRα (Homo sapiens, UniProt P10276+P19793); experiment: cell-based
T4 sequence (P10276 1-462): T2 sequence (P10276 1-462)
T4 sequence (P19793 1-462): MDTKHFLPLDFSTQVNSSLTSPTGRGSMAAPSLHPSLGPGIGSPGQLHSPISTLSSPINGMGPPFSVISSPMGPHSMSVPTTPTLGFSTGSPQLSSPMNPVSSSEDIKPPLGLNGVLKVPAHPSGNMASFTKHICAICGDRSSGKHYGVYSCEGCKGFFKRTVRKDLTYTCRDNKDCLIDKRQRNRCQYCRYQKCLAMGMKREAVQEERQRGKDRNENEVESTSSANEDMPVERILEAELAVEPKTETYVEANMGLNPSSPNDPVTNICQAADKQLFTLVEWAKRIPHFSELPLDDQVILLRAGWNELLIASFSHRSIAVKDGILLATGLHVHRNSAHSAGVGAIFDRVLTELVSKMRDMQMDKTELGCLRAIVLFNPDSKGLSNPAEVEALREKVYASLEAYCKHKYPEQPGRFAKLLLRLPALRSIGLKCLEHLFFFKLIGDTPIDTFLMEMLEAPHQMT
Experimental: as §4

[11] = molecular target: T1, RARβ; experiment: RARβ-mediated transcriptional activation in CV-1 cells; assay type: cell-based
Experimental: as §4, §5

[12] = test system: HL-60 cells; experiment: retinoid induction of differentiation of HL-60 cells (NBT); assay type: cell-based; conditions: Homo sapiens, HL-60, 96 h; 4-day induction of differentiation; read-out: ED50 (nM) HL-60
Experimental: as §1, §2

[13] = test system: juvenile myelomonocytic leukemia (JMML); conditions: children with JMML; cited from earlier work
[14] = molecular target: T5, RXRα (Homo sapiens, UniProt P19793); conditions: taken from Alam et al (9); cited from earlier work
[15] = molecular target: T2, RARα; conditions: taken from Alam et al (9); cited from earlier work
[16] = molecular target: T3, RARγ; conditions: taken from Alam et al (9); cited from earlier work
[17] = molecular target: T5, RXRα; experiment: RXRα homodimer-mediated transcriptional activation in CV-1 cells; assay type: cell-based
Experimental: as §4

[18] = molecular target: T1, RARβ; conditions: taken from Alam et al (9); cited from earlier work
[19] = test system: RARs; experiment: binding to RARs (subtypes stated together in text)
Experimental: as §3

[20] = read-out: normalized percent inhibition of CFU-GM colony growth, patient J83 (%), 10^-6 M
[21] = read-out: normalized percent inhibition of CFU-GM colony growth, patient J83 (%), 10^-7 M
[22] = read-out: normalized percent inhibition of CFU-GM colony growth, patient J84 (%), 10^-6 M
[23] = read-out: normalized percent inhibition of CFU-GM colony growth, patient J84 (%)
[24] = read-out: normalized percent inhibition of CFU-GM colony growth, patient J83 (%)

With `CC1=C(/C=C/C(C)=C\C=C\C(C)=C\C(=O)O)C(C)(C)CCC1` [(9Z)-RA, 9-cis-retinoic acid, reference compound] the “NB4 cell differentiation” value ([1]; retinoid alone) was “comparable to that of ATRA”, the inhibition at 0.1 µM ([2]; read-out: normalized percent inhibition of CFU-GM colony growth, patient J43 (%), 10^-7 M) was 98% and the inhibition at 1 µM [2, 20] was 82%. The inhibition at 0.1 µM [2, 21] was 72%, the inhibition at 1 µM [2, 22] was 95% and the “prevention of papilloma (tumor) formation” value (shortened to “prevention of papilloma”) [3] was 95%.
For `CCC1=C(C(C)C)/C(=C/C(C)=C\C=C\C(C)=C\C(=O)O)CCC1` [(9Z)-UAB8], the IC50 [4] was > 1000 nM, the IC50 [5] was > 1000 nM and the EC50 [6] was 190 nM. The IC50 [7] was > 1000 nM, the “prevention of papilloma” value [8] was 54% and the EC50 [9] was > 1 µM. The EC30 ([1]; Homo sapiens, NB-4, 72 h, retinoid alone, 3 days, read-out: ED30 NB4 cell differentiation) was > 3000 µM, the EC50 [10] was > 2 µM and the EC50 [11] was > 2000 nM.
With `CCC1=C(C(C)C)/C(=C/C(C)=C\C=C\C(C)=C/C(=O)O)CCC1` [(9Z, 13Z)-UAB8] the EC50 [12] was > 10000 nM and the EC50 ([1]; Homo sapiens, 4-day induction of differentiation) was > 10000 nM.
Molecule `CC1=C(/C=C/C(C)=C/C=C/C(C)=C\C(=O)O)C(C)(C)CCC1` [(13Z)-RA, reference compound] has an inhibition at 1 µM ([2]; read-out: normalized percent inhibition of CFU-GM colony growth, patient J43 (%), 10^-6 M) of 109%, an inhibition at 1 µM [2, 20] of 94% and an inhibition at 0.1 µM [2, 21] of 86%. For the same molecule, the inhibition at 1 µM [2, 22] was 87% and the “share of children in whom excessive myeloproliferation is controlled” value [13] was “up to 50%”.
In the case of `CCC1=C(C(C)C)/C(=C/C(C)=C/C=C/C(C)=C\C(=O)O)CCC1` [(13Z)-UAB8], the EC50 [12] is listed as > 10000 nM, the IC50 [14] is listed as > 1000 nM and the EC50 [6] is listed as 42 nM. The IC50 [15] was 900 nM, the IC50 [16] was 708 nM and the EC50 [9] was 0.051 µM. For the same molecule, the EC50 [10] was 0.45 µM, the EC50 [17] was > 2 µM and the inhibition at 1 µM ([2]; read-out: normalized percent inhibition of CFU-GM colony growth, patient J43 (%)) was 80%. For the same molecule, the inhibition at 0.01 µM [2, 23] was 0%, the inhibition at 0.1 µM [2, 23] was 18% and the IC50 [18] was 371 nM.
With `CC(=C/C(=O)O)/C=C/C=C(C)/C=C1\CCCc2ccccc21` [(13Z)-UAB30, (2E,4E,6E,8E)-8-(3',4'-Dihydro-1'(2'H)-naphthalen-1'-ylidene)3,7-dimethyl-2,4,6-octatrienoic acid] the EC50 [12] was > 10000 nM, the “binding to the RAR subtypes” value [19] was “ineffective binder” and the EC50 ([1]; Homo sapiens) was > 10000 nM. It also gave an inhibition at 0.1 µM [2, 24] of 82%, an inhibition at 1 µM [2, 24] of 88% and an inhibition at 0.01 µM [2, 23] of 25%. The inhibition at 0.1 µM [2, 23] was 72% and the inhibition at 1 µM [2, 23] was 80%.
With `CC(=C\C=C\C(C)=C\C(=O)O)/C=C1\CCCc2ccccc21` [(all-E)-UAB30, (2E,4E,6E,8E)-8-(3',4'-Dihydro-1'(2'H)-naphthalen-1'-ylidene)3,7-dimethyl-2,4,6-octatrienoic acid] the EC50 [12] was > 10000 nM, the “prevention of papilloma” value [8] was 59% and the EC50 ([1]; Homo sapiens) was > 10000 nM. For the same molecule, the “dose up to which not active in NB4 cell differentiation” value ([1]; retinoid alone, 3 days) was > 40 mM, the “NB4 cell differentiation” value ([1]; retinoid alone, listed as all-trans-UAB30) was “inactive in NB4 cell differentiation; also recorded: not induce differentiation of NB4 cells” and the inhibition at 0.1 µM [2, 24] was 68%. It also gave an inhibition at 1 µM [2, 24] of 72%, an inhibition at 0.01 µM [2, 23] of 28% and an inhibition at 0.1 µM [2, 23] of 48%. The inhibition at 1 µM [2, 23] was 57%.
